Assay results: the supplement of paper PMC10307832

Tests used:
Assay in all cases: relative viability (nuclei count vs DMSO), 5 days (fraction); higher = more cells survive
IPA-3 + Palbociclib = compound: C1=CC=C2C(=C1)C=CC(=C2SSC3=C(C=CC4=CC=CC=C43)O)O [IPA-3] + CC(=O)c1c(C)c2cnc(Nc3ccc(N4CCNCC4)cn3)nc2n(C2CCCC2)c1=O [Palbociclib] (partner 0.5 µM)
In short: (§1)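 For relative viability, nuclei counts in treated wells were divided by those in vehicle wells. Lung cancer cell lines had been pin-tool dosed in 1536-well plates the day after seeding and cultured for 5 days, then fixed and stained in one step (final 0.05% Triton X-100, 1% formaldehyde, 1 ug/ml Hoechst) and imaged at 4×. Doses were one drug alone or a fixed anchor-drug dose plus five library-drug doses (not always all listed) in √10 steps, and values are duplicate-plate medians.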

IPA-3 + Pictilisib = compound: C1=CC=C2C(=C1)C=CC(=C2SSC3=C(C=CC4=CC=CC=C43)O)O [IPA-3] + CS(=O)(=O)N1CCN(Cc2cc3nc(-c4cccc5[nH]ncc45)nc(N4CCOCC4)c3s2)CC1 [Pictilisib] (partner 1 µM)
In short: as §1

Doramapimod + Olaparib = compound: Cc1ccc(-n2nc(C(C)(C)C)cc2NC(=O)Nc2ccc(OCCN3CCOCC3)c3ccccc23)cc1 [Doramapimod] + O=C(c1cc(Cc2n[nH]c(=O)c3ccccc23)ccc1F)N1CCN(C(=O)C2CC2)CC1 [Olaparib] (partner 8 µM)
In short: as §1

Doramapimod + Lapatinib = compound: Cc1ccc(-n2nc(C(C)(C)C)cc2NC(=O)Nc2ccc(OCCN3CCOCC3)c3ccccc23)cc1 [Doramapimod] + CS(=O)(=O)CCNCc1ccc(-c2ccc3ncnc(Nc4ccc(OCc5cccc(F)c5)c(Cl)c4)c3c2)o1 [Lapatinib] (partner 2 µM)
In short: as §1

| Cell Line | relative viability (IPA-3 + Palbociclib; first compound 0.2 µM) | relative viability (IPA-3 + Palbociclib; first compound 0.6325 µM) | relative viability (IPA-3 + Palbociclib; first compound 2 µM) | relative viability (IPA-3 + Palbociclib; first compound 6.325 µM) | relative viability (IPA-3 + Palbociclib; first compound 20 µM) | relative viability (IPA-3 + Pictilisib; first compound 0.2 µM) | relative viability (IPA-3 + Pictilisib; first compound 0.6325 µM) | relative viability (IPA-3 + Pictilisib; first compound 2 µM) | relative viability (IPA-3 + Pictilisib; first compound 6.325 µM) | relative viability (IPA-3 + Pictilisib; first compound 20 µM) | relative viability (Doramapimod + Olaparib; first compound 0.02 µM) | relative viability (Doramapimod + Olaparib; first compound 0.06325 µM) | relative viability (Doramapimod + Olaparib; first compound 0.2 µM) | relative viability (Doramapimod + Olaparib; first compound 0.6325 µM) | relative viability (Doramapimod + Olaparib; first compound 2 µM) | relative viability (Doramapimod + Lapatinib; first compound 0.02 µM) | relative viability (Doramapimod + Lapatinib; first compound 0.06325 µM) | relative viability (Doramapimod + Lapatinib; first compound 0.2 µM) | relative viability (Doramapimod + Lapatinib; first compound 0.6325 µM) | relative viability (Doramapimod + Lapatinib; first compound 2 µM) |
| --- | --- | --- | --- | --- | --- | --- | --- | --- | --- | --- | --- | --- | --- | --- | --- | --- | --- | --- | --- | --- |
| EMC-BAC-2 | 0.537 | 0.509 | 0.527 | 0.516 | 0.532 | 0.552 | 0.53 | 0.531 | 0.529 | 0.636 | 0.494 | 0.441 | 0.469 | 0.473 | 0.43 | 0.918 | 0.935 | 0.871 | 1.01 | 0.715 |
| LK-2 | 0.847 | 0.643 | 0.709 | 0.818 | 0.706 | 0.47 | 0.572 | 0.708 | 0.646 | 0.695 | 0.656 | 0.778 | 0.656 | 0.493 | 0.397 | 0.972 | 0.873 | 0.904 | 0.68 | 0.754 |
| SW 1573 | 0.492 | 0.332 | 0.412 | 0.363 | 0.0729 | 0.593 | 0.503 | 0.6 | 0.479 | 0.61 | 0.446 | 0.425 | 0.456 | 0.546 | 0.433 | 0.982 | 0.939 | 0.897 | 1.04 | 1.2 |
| NCI-H2405 | 0.561 | 0.49 | 0.519 | 0.529 | 0.544 | 0.458 | 0.382 | 0.354 | 0.519 | 0.416 | 0.912 | 0.828 | 0.765 | 0.816 | 0.836 | 1.15 | 1.1 | 1.07 | 1.16 | 0.969 |
| NCI-H2087 | 0.263 | 0.207 | 0.22 | 0.219 | 0.283 | 0.891 | 0.784 | 0.894 | 0.936 | 1.01 | 0.562 | 0.577 | 0.525 | 0.675 | 0.481 | 1.06 | 1.11 | 1.02 | 0.869 | 0.961 |
| NCI-H460 | 0.203 | 0.108 | 0.145 | 0.19 | 0.057 | 0.479 | 0.321 | 0.36 | 0.408 | 0.557 | 0.453 | 0.431 | 0.422 | 0.459 | 0.419 | 0.889 | 0.962 | 0.858 | 0.946 | 0.934 |
| LOU-NH91 | 0.535 | 0.525 | 0.552 | 0.511 | 0.572 | 0.505 | 0.501 | 0.567 | 0.523 | 0.57 | 0.987 | 0.929 | 0.902 | 1 | 0.737 | 0.693 | 0.673 | 0.678 | 0.631 | 0.628 |
| NCI-H1651 | 0.534 | 0.511 | 0.541 | 0.528 | 0.602 | 0.649 | – | 0.581 | 0.659 | 0.799 | 0.203 | 0.19 | 0.17 | 0.204 | 0.194 | 0.878 | 0.791 | 0.864 | 0.99 | 0.781 |
